Experimental findings from patent publication US20060281071A1, “Stearoyl-CoA desaturase assay” (priority 2005, published 2006) are described below.

Values joined by “and” are separate entries in the source; they are usually repeats but may differ in a detail not shown here. Equal entries are not always repeated. Where two headings read alike, the source gives them in different places.

The target of one test is T1, mSCD3 (Mus musculus, UniProt Q99PL7, V119A).
T1 sequence (Q99PL7 1-359 V119A): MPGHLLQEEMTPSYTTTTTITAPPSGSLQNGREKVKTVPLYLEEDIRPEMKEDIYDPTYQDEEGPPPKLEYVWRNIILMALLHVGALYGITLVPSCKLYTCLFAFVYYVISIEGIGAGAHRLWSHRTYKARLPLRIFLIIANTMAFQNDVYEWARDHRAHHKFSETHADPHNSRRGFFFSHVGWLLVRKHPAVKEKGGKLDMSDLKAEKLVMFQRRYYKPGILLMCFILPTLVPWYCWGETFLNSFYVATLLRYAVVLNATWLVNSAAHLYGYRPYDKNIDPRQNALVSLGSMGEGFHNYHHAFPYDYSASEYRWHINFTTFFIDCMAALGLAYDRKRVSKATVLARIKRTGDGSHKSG
Put plainly: Conversion of saturated fatty acids to Δ9 monounsaturated fatty acids in ole1 yeast L8-14C expressing mSCD3 (GLC). It counts as cell-based. Further details: Cloning of the full-length human and mouse SCD cDNAs: The full coding region of human SCDs; expressed in transfected cells; host or cells: Saccharomyces cerevisiae L8-14C (ole1 disruptant), vector p426GPD.

Another test deals with T2, hSCD5 (Homo sapiens, UniProt Q86SK9).
T2 sequence (Q86SK9 1-330): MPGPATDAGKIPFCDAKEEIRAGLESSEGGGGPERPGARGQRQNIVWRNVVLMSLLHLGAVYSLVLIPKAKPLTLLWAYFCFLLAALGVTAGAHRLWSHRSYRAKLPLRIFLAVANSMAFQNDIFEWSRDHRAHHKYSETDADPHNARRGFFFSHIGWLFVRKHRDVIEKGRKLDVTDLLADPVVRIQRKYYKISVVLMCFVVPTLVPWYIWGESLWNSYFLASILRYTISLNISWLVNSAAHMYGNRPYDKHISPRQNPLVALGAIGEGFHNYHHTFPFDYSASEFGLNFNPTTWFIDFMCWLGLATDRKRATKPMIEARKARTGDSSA
Put plainly: Conversion of saturated fatty acids to Δ9 monounsaturated fatty acids in ole1 yeast L8-14C expressing hSCD5 (GLC). It counts as cell-based. Also noted: Cloning of the full-length human and mouse SCD cDNAs: The full coding region of human SCDs; expressed in transfected cells; host or cells: Saccharomyces cerevisiae L8-14C (ole1 disruptant), vector p426GPD. Particulars: for % conversion of fatty acid to Δ9 monounsaturated fatty acid: endogenous fatty acid, L8-14C transformant, YPD lacking unsaturated fatty acids, 3 days. An excerpt:
(§1) Functional Analysis: The p426GPD constructs harboring either human or mouse SCDs were transformed into Saccharomyces cerevisiae strain L8-14C (provided by Professor Charles Martin, Division of Life Sciences, Department of Cell Biology and Neuroscience, Rutgers University, Nelson Laboratories), which contains a disruption of the yeast Δ9-desaturase gene ole1 and requires unsaturated fatty acids for growth (Stukey, J. E. et al. (1990) J Biol Chem 265, 20144-20149), by using a Lithium acetate standard methods (Elble, R. (1992) Biotechniques 13, 18-20). The transformed yeast cells were plated onto a synthetic dextrose medium containing 1% tergitol NP-40, 0.5 mM oleic acid, and 0.5 mM palmitoleic acid but lacking uracil. To test the genetic complementation of the mutant yeast strain, transformed yeast cells were plated onto YPD (Yeast Extract/Peptone/Dextrose) medium lacking unsaturated fatty acids. Plates were incubated at 30° C. for 3 days.
(§2) Fatty acid analysis: Yeast cells were grown in liquid YPD medium lacking unsaturated fatty acids for 3 days. Cells were pelleted and washed twice with water, followed by suspension in 0.5 ml of 2M NaOH in methanol. The mixture was then heated to 80° C. for 1 h and acidified with formic acid. Fatty acids were extracted according to Bligh & Dyer's method and trans-methylated with 1 ml of 14% BF3 in methanol (Sigma). The resulting fatty acid methyl esters were extracted with hexane and analyzed by gas-liquid chromatography (GLC) (Miyazaki, M. et al. (2001) J Biol Chem 276, 39455-39461; and Elble, R. (1992) Biotechniques 13, 18-20). The double bond positions of the monounsaturated fatty acid pyrrolidide derivatives were analyzed by tandem GC-MS as described in Miyazaki, M. et al. (2002) J Lipid Res 43, 2146-2154, incorporated by reference in its entirety. Exogenous saturated fatty acids (0.2 mM) were added into YPD in presence of 1% Tergitol NP-40 (Sigma).

The target in another test is T3, mSCD1 (Mus musculus, UniProt P13516).
T3 sequence (P13516 1-355): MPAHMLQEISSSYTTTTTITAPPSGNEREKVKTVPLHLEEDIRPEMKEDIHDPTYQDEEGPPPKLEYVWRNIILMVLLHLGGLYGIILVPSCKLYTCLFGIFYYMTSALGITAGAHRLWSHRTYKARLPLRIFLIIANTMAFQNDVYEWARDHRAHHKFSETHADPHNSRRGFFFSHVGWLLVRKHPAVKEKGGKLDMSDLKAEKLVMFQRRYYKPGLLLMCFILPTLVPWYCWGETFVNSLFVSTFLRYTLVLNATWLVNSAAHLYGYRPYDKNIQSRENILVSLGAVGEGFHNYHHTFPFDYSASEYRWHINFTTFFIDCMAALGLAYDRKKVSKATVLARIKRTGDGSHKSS
Put plainly: Conversion of saturated fatty acids to Δ9 monounsaturated fatty acids in ole1 yeast L8-14C expressing mSCD1 (GLC). The conditions noted are these: for conversion of exogenous saturated fatty acid to Δ9 monounsaturated fatty acid: exogenous fatty acid 0.2 mM, 1% tergitol NP-40, yeast cultured 2 days (FIG. 2); for % conversion of fatty acid to Δ9 monounsaturated fatty acid: endogenous fatty acid, L8-14C transformant, YPD lacking unsaturated fatty acids, 3 days. It counts as cell-based. Also noted: Cloning of the full-length human and mouse SCD cDNAs: The full coding region of human SCDs; expressed in transfected cells; host or cells: Saccharomyces cerevisiae L8-14C (ole1 disruptant), vector p426GPD.

The target of another test is T4, mSCD2 (Mus musculus, UniProt P13011).
T4 sequence (P13011 1-358): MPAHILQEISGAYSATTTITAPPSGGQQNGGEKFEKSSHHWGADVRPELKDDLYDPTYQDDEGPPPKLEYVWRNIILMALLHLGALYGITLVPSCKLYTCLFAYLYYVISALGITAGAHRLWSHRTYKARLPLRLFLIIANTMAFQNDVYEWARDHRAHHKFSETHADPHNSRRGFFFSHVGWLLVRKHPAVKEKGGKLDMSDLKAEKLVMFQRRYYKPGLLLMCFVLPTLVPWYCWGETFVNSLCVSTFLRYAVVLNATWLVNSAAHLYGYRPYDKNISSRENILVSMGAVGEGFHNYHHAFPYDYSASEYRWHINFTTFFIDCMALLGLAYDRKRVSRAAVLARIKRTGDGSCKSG
Kind of test: Conversion of saturated fatty acids to Δ9 monounsaturated fatty acids in ole1 yeast L8-14C expressing mSCD2 (GLC). It counts as cell-based. Further details: Cloning of the full-length human and mouse SCD cDNAs: The full coding region of human SCDs; expressed in transfected cells; host or cells: Saccharomyces cerevisiae L8-14C (ole1 disruptant), vector p426GPD. Particulars: for conversion of exogenous saturated fatty acid to Δ9 monounsaturated fatty acid: exogenous fatty acid 0.2 mM, 1% tergitol NP-40, yeast cultured 2 days (FIG. 2); for % conversion of fatty acid to Δ9 monounsaturated fatty acid: endogenous fatty acid, L8-14C transformant, YPD lacking unsaturated fatty acids, 3 days.

The target of a further test is T5, hSCD1 (Homo sapiens, UniProt O00767).
T5 sequence (O00767 1-359): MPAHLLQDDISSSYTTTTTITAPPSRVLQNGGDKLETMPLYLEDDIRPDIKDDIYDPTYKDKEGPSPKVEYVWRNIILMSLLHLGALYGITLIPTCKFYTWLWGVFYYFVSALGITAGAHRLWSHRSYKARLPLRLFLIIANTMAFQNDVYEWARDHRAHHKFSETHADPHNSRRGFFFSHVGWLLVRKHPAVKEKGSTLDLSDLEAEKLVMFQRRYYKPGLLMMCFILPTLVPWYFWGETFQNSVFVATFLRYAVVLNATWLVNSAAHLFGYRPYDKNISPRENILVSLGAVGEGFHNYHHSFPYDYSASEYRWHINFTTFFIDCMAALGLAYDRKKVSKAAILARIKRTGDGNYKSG
Put plainly: Conversion of saturated fatty acids to Δ9 monounsaturated fatty acids in ole1 yeast L8-14C expressing hSCD1 (GLC). The test is classed as cell-based. Further details: Cloning of the full-length human and mouse SCD cDNAs: The full coding region of human SCDs; expressed in transfected cells; host or cells: Saccharomyces cerevisiae L8-14C (ole1 disruptant), vector p426GPD. The conditions noted are these: for conversion of exogenous saturated fatty acid to Δ9 monounsaturated fatty acid: exogenous fatty acid 0.2 mM, 1% tergitol NP-40, yeast cultured 2 days (FIG. 2); for % conversion of fatty acid to Δ9 monounsaturated fatty acid: endogenous fatty acid, L8-14C transformant, YPD lacking unsaturated fatty acids, 3 days.

The test system of another test is mSCD4. Put plainly: Conversion of saturated fatty acids to Δ9 monounsaturated fatty acids in ole1 yeast L8-14C expressing mSCD4 (GLC). The conditions noted are these: for conversion of exogenous saturated fatty acid to Δ9 monounsaturated fatty acid: exogenous fatty acid 0.2 mM, 1% tergitol NP-40, yeast cultured 2 days (FIG. 2); for % conversion of fatty acid to Δ9 monounsaturated fatty acid: endogenous fatty acid, L8-14C transformant, YPD lacking unsaturated fatty acids, 3 days. The test is classed as cell-based, mouse.
From the text: as §1
as §2, with “Cells” for “Fatty acid analysis: Yeast cells were grown in liquid YPD medium lacking unsaturated fatty acids for 3 days. Cells”

Setting [1] is: exogenous fatty acid 0.2 mM, 1% tergitol NP-40, yeast cultured 2 days (FIG. 2).
Where [2] appears, read: yeast transformant, endogenous fatty acids.

`CCCCCCCCCCCC(=O)O` [12:0, lauric acid]: the “conversion of exogenous saturated fatty acid to Δ9 monounsaturated fatty acid” value on mSCD3 is listed as 14%; at hSCD5, “did not desaturate”.
As for `CCCCCCCCCCCCC(=O)O` [13:0, tridecanoic acid], the “conversion of exogenous saturated fatty acid to Δ9 monounsaturated fatty acid” value on mSCD1 is listed as 13%; on mSCD2 it was 14%; at hSCD1 it was 9%; on hSCD5 (setting [1]), “did not desaturate”.
For the molecule `CCCCCCCCCCCCCC(=O)O` [14:0, myristic acid], the “conversion of exogenous saturated fatty acid to Δ9 monounsaturated fatty acid” value with mSCD4 was 2.9%; on mSCD1, 11%; at mSCD2 it was 14%; at hSCD1 it was 18%; on hSCD5 (setting [1]), “less than 5%”.
For the molecule `CCCCCCCCCCCCCCCC(=O)O` [16:0], the “% conversion of fatty acid to Δ9 monounsaturated fatty acid” value with mSCD4 is listed as 9.7%; on mSCD1, 36.4%; at mSCD2, 51.4%; on hSCD1, 43.8%; at hSCD5 it was 19.9%.
As for `CCCCCCCCCCCCCCCCC(=O)O` [17:0, heptadecanoic acid], the “conversion of exogenous saturated fatty acid to Δ9 monounsaturated fatty acid” value with mSCD4 was found to be 5.7%; on mSCD1, 43%; on mSCD2, 31%; at hSCD1 it was 35%; at hSCD5 (setting [1]) it was 31%.
For the molecule `CCCCCCCCCCCCCCCCCC(=O)O` [18:0], the “% conversion of fatty acid to Δ9 monounsaturated fatty acid” value is 16.8% in the test with mSCD4; 85% and 84.8% on mSCD1; 77% and 77.3% at mSCD2; 75.0% at hSCD1; 86.6% at hSCD5. In addition, the “conversion towards 18:0 relative to 16:0” value on hSCD1 (setting [2]) is given as 1.7 fold. The “conversion of 18:0 to 18:1Δ9 relative to that of 16:0” value on hSCD5 (setting [2]) is given as “more than 4 fold”.
`CCCCCCCCCCCCCCCCCCCC(=O)O` [C20:0, eicosanoic acid]: the “conversion of exogenous saturated fatty acid to Δ9 monounsaturated fatty acid” value in the test on mSCD4, at mSCD1, at mSCD2, on hSCD1 and on hSCD5 (setting [1]) was “None of Δ9-desaturase was able to utilize” each time.
